Measurements: the NIST ThermoML archive (doi:10.1021/acs.jced.5b01000)

Assays:
[1] = refractive index (Na D-line) (dimensionless); xn = mol fraction of the nth substance listed; conditions: 99 kPa, Liquid, Standard Abbe refractometry
[2] = xn = mol fraction of the nth substance listed; conditions: 99 kPa, Liquid; for viscosity: Capillary tube (Ostwald / Ubbelohde) method; for speed of sound: Frequency=3 MHz, Sing-around technique in a fixed-path interferometer; for mass density: Vibrating tube method

CC(=O)N(C)C [N,N-dimethylethanamide] + CO
Conditions | mass density, [2] [kg/m3] | refractive index, [1] | speed of sound, [2] [m/s] | viscosity, [2] [mPa·s]
283.15 K, x1 = 0.0602 | 823.325 | 1.34879 | 1204.4 | 0.7266
283.15 K, x1 = 0.1088 | 838.649 | 1.35969 | 1242 | 0.7638
283.15 K, x1 = 0.2079 | 864.147 | 1.37803 | 1305.6 | 0.831
283.15 K, x1 = 0.304 | 883.509 | 1.39207 | 1353.4 | 0.892
283.15 K, x1 = 0.4055 | 899.792 | 1.40414 | 1394 | 0.9491
283.15 K, x1 = 0.5011 | 912.039 | 1.41331 | 1424.8 | 0.9971
283.15 K, x1 = 0.6014 | 922.607 | 1.42138 | 1450.4 | 1.041
283.15 K, x1 = 0.7036 | 931.645 | 1.42811 | 1473.1 | 1.083
283.15 K, x1 = 0.803 | 938.688 | 1.43369 | 1489.2 | 1.117
283.15 K, x1 = 0.9076 | 945.177 | 1.43878 | 1505 | 1.149
283.15 K, x1 = 0.9502 | 947.535 | 1.4407 | 1510.7 | 1.158
283.15 K, x1 = 1 | 950.131 | 1.44273 | 1516.8 | 1.168
298.15 K, x1 = 0.0602 | 809.208 | 1.3423 | 1154.4 | 0.5868
298.15 K, x1 = 0.1088 | 824.553 | 1.35319 | 1190.7 | 0.6156
298.15 K, x1 = 0.2079 | 849.999 | 1.37142 | 1250.8 | 0.6706
298.15 K, x1 = 0.304 | 869.253 | 1.38536 | 1297.1 | 0.7197
298.15 K, x1 = 0.4055 | 885.574 | 1.39737 | 1336 | 0.764
298.15 K, x1 = 0.5011 | 897.92 | 1.40652 | 1365.2 | 0.8017
298.15 K, x1 = 0.6014 | 908.603 | 1.41458 | 1391.2 | 0.8364
298.15 K, x1 = 0.7036 | 917.769 | 1.42131 | 1413.5 | 0.8692
298.15 K, x1 = 0.803 | 924.814 | 1.42684 | 1429.2 | 0.8941
298.15 K, x1 = 0.9076 | 931.291 | 1.43186 | 1443.4 | 0.9147
298.15 K, x1 = 0.9502 | 933.67 | 1.43378 | 1449.2 | 0.9232
298.15 K, x1 = 1 | 936.289 | 1.43579 | 1453.7 | 0.9299
313.15 K, x1 = 0.0602 | 794.82 | 1.33598 | 1103.1 | 0.479
313.15 K, x1 = 0.1088 | 810.116 | 1.3468 | 1138.1 | 0.5045
313.15 K, x1 = 0.2079 | 835.563 | 1.36494 | 1196.3 | 0.5501
313.15 K, x1 = 0.304 | 854.874 | 1.37881 | 1240.7 | 0.5911
313.15 K, x1 = 0.4055 | 871.236 | 1.39075 | 1278.3 | 0.6287
313.15 K, x1 = 0.5011 | 883.681 | 1.39987 | 1306.9 | 0.6592
313.15 K, x1 = 0.6014 | 894.459 | 1.40791 | 1332.7 | 0.689
313.15 K, x1 = 0.7036 | 903.693 | 1.4146 | 1353 | 0.7156
313.15 K, x1 = 0.803 | 910.885 | 1.42013 | 1370.2 | 0.7362
313.15 K, x1 = 0.9076 | 917.391 | 1.42511 | 1383.7 | 0.7539
313.15 K, x1 = 0.9502 | 919.775 | 1.42701 | 1388.9 | 0.7607
313.15 K, x1 = 1 | 922.429 | 1.42901 | 1393.3 | 0.7644

CC(=O)N(C)C [N,N-dimethylethanamide] + CCO
Conditions | mass density, [2] [kg/m3] | refractive index, [1] | speed of sound, [2] [m/s] | viscosity, [2] [mPa·s]
283.15 K, x1 = 0.0524 | 811.441 | 1.37246 | 1225.3 | 1.369
283.15 K, x1 = 0.1071 | 824.492 | 1.37916 | 1254.6 | 1.306
283.15 K, x1 = 0.2064 | 845.481 | 1.39001 | 1298 | 1.229
283.15 K, x1 = 0.3022 | 863.302 | 1.39925 | 1334.9 | 1.187
283.15 K, x1 = 0.4057 | 880.337 | 1.40801 | 1369.6 | 1.166
283.15 K, x1 = 0.5032 | 894.71 | 1.41538 | 1399.5 | 1.161
283.15 K, x1 = 0.6016 | 907.87 | 1.42196 | 1427.3 | 1.16
283.15 K, x1 = 0.7065 | 920.678 | 1.42823 | 1454 | 1.164
283.15 K, x1 = 0.8013 | 931.158 | 1.43325 | 1476.5 | 1.17
283.15 K, x1 = 0.9021 | 941.312 | 1.43826 | 1498.3 | 1.172
283.15 K, x1 = 0.9529 | 946.061 | 1.44059 | 1508.5 | 1.169
283.15 K, x1 = 1 | 950.131 | 1.44273 | 1516.8 | 1.168
298.15 K, x1 = 0.0524 | 798.435 | 1.36619 | 1172.1 | 1.038
298.15 K, x1 = 0.1071 | 811.331 | 1.37281 | 1199.9 | 1.003
298.15 K, x1 = 0.2064 | 832.087 | 1.38351 | 1242.5 | 0.9558
298.15 K, x1 = 0.3022 | 849.767 | 1.39264 | 1277.4 | 0.9319
298.15 K, x1 = 0.4057 | 866.689 | 1.40131 | 1312.1 | 0.9212
298.15 K, x1 = 0.5032 | 881.006 | 1.40863 | 1341 | 0.9169
298.15 K, x1 = 0.6016 | 894.141 | 1.41518 | 1367.9 | 0.921
298.15 K, x1 = 0.7065 | 906.822 | 1.42135 | 1394.4 | 0.9259
298.15 K, x1 = 0.8013 | 917.351 | 1.4264 | 1415.7 | 0.9311
298.15 K, x1 = 0.9021 | 927.481 | 1.43136 | 1437.6 | 0.9309
298.15 K, x1 = 0.9529 | 932.213 | 1.43367 | 1446.3 | 0.9307
298.15 K, x1 = 1 | 936.289 | 1.43579 | 1453.7 | 0.9299
313.15 K, x1 = 0.0524 | 785.68 | 1.35974 | 1120.6 | 0.8029
313.15 K, x1 = 0.1071 | 798.43 | 1.36632 | 1147.6 | 0.7849
313.15 K, x1 = 0.2064 | 818.908 | 1.37691 | 1188.7 | 0.7611
313.15 K, x1 = 0.3022 | 836.413 | 1.38598 | 1222.6 | 0.7493
313.15 K, x1 = 0.4057 | 853.186 | 1.39461 | 1256.3 | 0.7462
313.15 K, x1 = 0.5032 | 867.418 | 1.40189 | 1284.2 | 0.7469
313.15 K, x1 = 0.6016 | 880.488 | 1.40843 | 1310.5 | 0.7516
313.15 K, x1 = 0.7065 | 893.143 | 1.41463 | 1336.3 | 0.7581
313.15 K, x1 = 0.8013 | 903.56 | 1.41962 | 1358.5 | 0.7623
313.15 K, x1 = 0.9021 | 913.657 | 1.4246 | 1378.5 | 0.7643
313.15 K, x1 = 0.9529 | 918.346 | 1.42688 | 1386 | 0.7651
313.15 K, x1 = 1 | 922.429 | 1.42901 | 1393.3 | 0.7644
